Experimental data: US20180244611A1, “Modulators of the Cystic Fibrosis Transmembrane Conductance Regulator Protein and Methods of Use” (AbbVie S.à.r.l., priority 2017, published 2018)

Legend:
[1] = target: T1, F508delCFTR (Homo sapiens, UniProt P13569, DEL508-508); assay: Cell Surface Expression-Horse Radish Peroxidase (CSE-HRP) assay, test compound without co-corrector; format: cell-based; conditions: for EC50: test compound without co-corrector; for Emax: normalized to on-plate positive control;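 on Maximum % activity (without co-corrector): percent of on-plate 2 µM positive control corrector response over DMSO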
T1 construct: expressed in transfected cells; host or cells: CFBE41o- human lung-derived epithelial cells (CFBE41o-F508delCFTR-HRP), doxycycline-inducible
In short: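 CFBE41o- cells expressing F508delCFTR with HRP in the fourth exofacial loop, induced with 0.5 μg/mL doxycycline for 72 h at 37° C, then exposed to compound alone for 18-24 h at 33° C, 8-point 3-fold series from 20 μM. Surface HRP read by luminol luminescence, normalized to positive corrector control versus DMSO; EC50 from variable-slope sigmoidal fit of three replicate plates.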

[2] = target: T1, F508delCFTR; assay: Cell Surface Expression-Horse Radish Peroxidase (CSE-HRP) assay, test compound with co-corrector; format: cell-based; conditions: for Maximum % activity (with co-corrector): maximum at any tested concentration;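 on Maximum % activity (with co-corrector): percent of 2 µM positive control corrector over DMSO; co-corrector is that same compound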
In short: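 CFBE41o- cells expressing F508delCFTR with HRP in the fourth exofacial loop, induced with 0.5 μg/mL doxycycline for 72 h, then treated 18-24 h at 33° C. with compound (8 points, top 20 μM, 3-fold) plus 2 μM co-corrector. Surface HRP read by luminol luminescence; activity normalised to positive control, EC50 from variable-slope sigmoidal fit.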

[3] = maximum at any tested concentration, without co-corrector
[4] = CSE-HRP assay, test compound with 2 μM co-corrector
[5] = normalized to on-plate positive control, with 2 μM co-corrector

T1 sequence (P13569 with tags, fused parts or gaps DEL508-508): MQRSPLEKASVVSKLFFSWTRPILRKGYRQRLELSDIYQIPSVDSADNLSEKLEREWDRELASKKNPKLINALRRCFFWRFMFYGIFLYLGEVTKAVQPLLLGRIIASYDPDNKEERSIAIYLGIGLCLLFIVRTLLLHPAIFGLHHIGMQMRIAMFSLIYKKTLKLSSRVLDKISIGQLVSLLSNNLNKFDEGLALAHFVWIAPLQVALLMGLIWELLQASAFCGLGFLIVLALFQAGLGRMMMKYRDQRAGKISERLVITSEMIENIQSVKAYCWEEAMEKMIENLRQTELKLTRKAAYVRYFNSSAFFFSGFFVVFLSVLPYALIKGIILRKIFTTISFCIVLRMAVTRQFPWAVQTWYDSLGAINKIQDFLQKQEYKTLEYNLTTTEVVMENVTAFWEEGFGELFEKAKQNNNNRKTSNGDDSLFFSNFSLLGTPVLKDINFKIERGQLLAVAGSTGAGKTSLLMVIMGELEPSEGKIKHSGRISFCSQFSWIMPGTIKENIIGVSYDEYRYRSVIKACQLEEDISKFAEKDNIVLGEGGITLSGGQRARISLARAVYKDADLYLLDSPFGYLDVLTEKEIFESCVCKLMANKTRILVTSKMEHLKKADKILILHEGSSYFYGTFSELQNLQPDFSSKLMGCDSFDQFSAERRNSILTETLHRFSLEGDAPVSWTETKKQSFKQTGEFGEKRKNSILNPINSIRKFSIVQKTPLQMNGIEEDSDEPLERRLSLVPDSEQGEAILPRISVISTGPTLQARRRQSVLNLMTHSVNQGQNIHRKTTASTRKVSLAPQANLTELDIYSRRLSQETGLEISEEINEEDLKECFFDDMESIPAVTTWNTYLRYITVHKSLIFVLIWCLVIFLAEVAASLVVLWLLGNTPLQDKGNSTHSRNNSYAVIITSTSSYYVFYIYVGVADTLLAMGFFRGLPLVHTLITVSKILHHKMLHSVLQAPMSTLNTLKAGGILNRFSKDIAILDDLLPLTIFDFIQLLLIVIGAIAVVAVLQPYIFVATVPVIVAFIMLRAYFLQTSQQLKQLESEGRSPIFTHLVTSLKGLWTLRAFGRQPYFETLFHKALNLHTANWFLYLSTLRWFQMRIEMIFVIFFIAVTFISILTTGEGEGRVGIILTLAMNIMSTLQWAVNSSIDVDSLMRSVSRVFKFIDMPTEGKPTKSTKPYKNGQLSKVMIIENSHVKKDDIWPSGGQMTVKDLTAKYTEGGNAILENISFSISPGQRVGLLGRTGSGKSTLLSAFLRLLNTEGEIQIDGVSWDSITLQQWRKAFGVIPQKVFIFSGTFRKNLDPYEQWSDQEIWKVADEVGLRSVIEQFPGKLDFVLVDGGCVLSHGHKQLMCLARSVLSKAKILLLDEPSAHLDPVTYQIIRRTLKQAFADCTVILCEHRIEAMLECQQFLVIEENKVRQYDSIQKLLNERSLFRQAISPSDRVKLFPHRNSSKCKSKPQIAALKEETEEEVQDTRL

COc1ccc(-c2ccc(C(F)(F)F)cc2)c2c1CCCC2C(=O)NS(=O)(=O)c1cccc2ccccc12 (stereo not shown) [III-154]
EC50 ([1]; CSE-HRP assay): < 3 µM
Emax [1, 3]: ≥ 150%
EC50 [2, 4]: < 3 µM
Maximum % activity (with co-corrector) [2, 5]: +++ (≥350)

CCC1(C(=O)NS(=O)(=O)c2cccc(Cl)c2C)CCc2c(Cl)cccc21 (stereo not shown) [III-156]
EC50 ([1]; CSE-HRP assay): 3 to 10 µM
Emax [1, 3]: 50 to 150%
EC50 [2, 4]: < 3 µM
Maximum % activity (with co-corrector) [2, 5]: ++ (≥150 and <350)

COc1ccc(Br)c2c1C(C(=O)NS(=O)(=O)c1cccnc1OC)CC2 (stereo not shown) [III-158]
EC50 ([1]; CSE-HRP assay): 3 to 10 µM
Emax [1, 3]: 50 to 150%
EC50 [2, 4]: 3 to 10 µM
Maximum % activity (with co-corrector) [2, 5]: ++ (≥150 and <350)

COc1ccc(Br)c2c1C(C(=O)NS(=O)(=O)c1cccnc1N)CC2 (stereo not shown) [III-159]
EC50 ([1]; CSE-HRP assay): 3 to 10 µM
Emax [1, 3]: ≥ 150%
EC50 [2, 4]: 3 to 10 µM
Maximum % activity (with co-corrector) [2, 5]: +++ (≥350)

COc1ccc(Br)c2c1C(C(=O)NS(=O)(=O)c1cccc(N)n1)CC2 (stereo not shown) [III-160]
EC50 ([1]; CSE-HRP assay): 3 to 10 µM
Emax [1, 3]: 50 to 150%
EC50 [2, 4]: 3 to 10 µM
Maximum % activity (with co-corrector) [2, 5]: +++ (≥350)

CCOc1ccc(S(=O)(=O)NC(=O)C2CCc3c(Br)ccc(OC)c32)c2ccccc12 (stereo not shown) [III-161]
EC50 ([1]; CSE-HRP assay): 3 to 10 µM
Emax [1, 3]: < 50%
EC50 [2, 4]: 3 to 10 µM
Maximum % activity (with co-corrector) [2, 5]: ++ (≥150 and <350)

COc1ccc(Br)c2c1C(C(=O)NS(=O)(=O)c1ccc(OC)c3ccccc13)CC2 (stereo not shown) [III-162]
EC50 ([1]; CSE-HRP assay): 3 to 10 µM
Emax [1, 3]: 50 to 150%
EC50 [2, 4]: 3 to 10 µM
Maximum % activity (with co-corrector) [2, 5]: +++ (≥350)

COc1ccc(Br)c2c1C(C(=O)NS(=O)(=O)c1cccn3cnnc13)CC2 (stereo not shown) [III-163]
EC50 ([1]; CSE-HRP assay): ≥ 10 µM
Emax [1, 3]: < 50%
EC50 [2, 4]: 3 to 10 µM
Maximum % activity (with co-corrector) [2, 5]: ++ (≥150 and <350)

COc1ccc(-c2cncnc2)c2c1C(C(=O)NS(=O)(=O)c1cccc3ccccc13)CCC2 (stereo not shown) [III-164]
EC50 ([1]; CSE-HRP assay): < 3 µM
Emax [1, 3]: 50 to 150%
EC50 [2, 4]: < 3 µM
Maximum % activity (with co-corrector) [2, 5]: +++ (≥350)

COc1ccc(-c2ccc(C3CC3)nc2)c2c1C(C(=O)NS(=O)(=O)c1cccc3ccccc13)CCC2 (stereo not shown) [III-165]
EC50 ([1]; CSE-HRP assay): 3 to 10 µM
Emax [1, 3]: 50 to 150%
EC50 [2, 4]: < 3 µM
Maximum % activity (with co-corrector) [2, 5]: ++ (≥150 and <350)

COc1ccc(-c2ccncc2)c2c1C(C(=O)NS(=O)(=O)c1cccc3ccccc13)CCC2 (stereo not shown) [III-166]
EC50 ([1]; CSE-HRP assay): < 3 µM
Emax [1, 3]: 50 to 150%
EC50 [2, 4]: < 3 µM
Maximum % activity (with co-corrector) [2, 5]: ++ (≥150 and <350)

COc1ccc(-c2ccc(C)nc2)c2c1C(C(=O)NS(=O)(=O)c1cccc3ccccc13)CCC2 (stereo not shown) [III-167]
EC50 ([1]; CSE-HRP assay): 3 to 10 µM
Emax [1, 3]: < 50%
EC50 [2, 4]: < 3 µM
Maximum % activity (with co-corrector) [2, 5]: ++ (≥150 and <350)

COc1ccc(-c2cncnc2)c2c1C(C(=O)NS(=O)(=O)c1cccc3ncccc13)CC2 (stereo not shown) [III-168]
EC50 ([1]; CSE-HRP assay): 3 to 10 µM
Emax [1, 3]: 50 to 150%
EC50 [2, 4]: 3 to 10 µM
Maximum % activity (with co-corrector) [2, 5]: +++ (≥350)

COc1ccc(C2=CCOCC2)c2c1C(C(=O)NS(=O)(=O)c1cccc3ncccc13)CC2 (stereo not shown) [III-169]
EC50 ([1]; CSE-HRP assay): 3 to 10 µM
Emax [1, 3]: ≥ 150%
EC50 [2, 4]: < 3 µM
Maximum % activity (with co-corrector) [2, 5]: +++ (≥350)

COc1ccc(-c2ccc(C)cc2)c2c1C(C(=O)NS(=O)(=O)c1cccc3ccccc13)CCC2 (stereo not shown) [III-170]
EC50 ([1]; CSE-HRP assay): < 3 µM
Emax [1, 3]: 50 to 150%
EC50 [2, 4]: < 3 µM
Maximum % activity (with co-corrector) [2, 5]: +++ (≥350)

COc1ccc(-c2ccc(C(F)(F)F)nc2)c2c1C(C(=O)NS(=O)(=O)c1cccc3ccccc13)CCC2 (stereo not shown) [III-171]
EC50 ([1]; CSE-HRP assay): 3 to 10 µM
Emax [1, 3]: 50 to 150%
EC50 [2, 4]: 3 to 10 µM
Maximum % activity (with co-corrector) [2, 5]: +++ (≥350)

CCC1(C(=O)NS(=O)(=O)c2cccc(N3CCOCC3)c2C)CCc2c(Cl)cccc21 (stereo not shown) [III-172]
EC50 ([1]; CSE-HRP assay): 3 to 10 µM
Emax [1, 3]: < 50%
EC50 [2, 4]: < 3 µM
Maximum % activity (with co-corrector) [2, 5]: ++ (≥150 and <350)

CCC1(C(=O)NS(=O)(=O)c2cccc(N(C)CCOC)c2C)CCc2c(Cl)cccc21 (stereo not shown) [III-173]
EC50 ([1]; CSE-HRP assay): 3 to 10 µM
Emax [1, 3]: 50 to 150%
EC50 [2, 4]: 3 to 10 µM
Maximum % activity (with co-corrector) [2, 5]: +++ (≥350)

COc1ccc(N2CCCC2)c2c1CCCC2C(=O)NS(=O)(=O)c1cccc2ccccc12 (stereo not shown) [III-174]
EC50 ([1]; CSE-HRP assay): ≥ 10 µM
Emax [1, 3]: < 50%
EC50 [2, 4]: ≥ 10 µM
Maximum % activity (with co-corrector) [2, 5]: + (<150)

COc1ccc2c(c1OC)CC2C(=O)NS(=O)(=O)c1ccccc1C (stereo not shown) [III-175]
EC50 ([1]; CSE-HRP assay): ≥ 10 µM
Emax [1, 3]: < 50%
EC50 [2, 4]: ≥ 10 µM
Maximum % activity (with co-corrector) [2, 5]: + (<150)

Cc1ccccc1S(=O)(=O)NC(=O)C1Cc2ccccc21 (stereo not shown) [III-176]
EC50 ([1]; CSE-HRP assay): ≥ 10 µM
Emax [1, 3]: < 50%
EC50 [2, 4]: ≥ 10 µM
Maximum % activity (with co-corrector) [2, 5]: + (<150)

COc1ccc2c(c1OC)CC2C(=O)NS(=O)(=O)c1cccc2ccccc12 (stereo not shown) [III-177]
EC50 ([1]; CSE-HRP assay): ≥ 10 µM
Emax [1, 3]: < 50%
EC50 [2, 4]: 3 to 10 µM
Maximum % activity (with co-corrector) [2, 5]: ++ (≥150 and <350)

COc1ccc2c(n1)CCC2C(=O)NS(=O)(=O)c1cccc2ccccc12 (stereo not shown) [III-178]
EC50 ([1]; CSE-HRP assay): 3 to 10 µM
Emax [1, 3]: < 50%
EC50 [2, 4]: 3 to 10 µM
Maximum % activity (with co-corrector) [2, 5]: ++ (≥150 and <350)

CCC1(C(=O)NS(=O)(=O)c2cccc(Cl)c2C(=O)O)CCc2c(Cl)cccc21 (stereo not shown) [III-179]
EC50 ([1]; CSE-HRP assay): ≥ 10 µM
Emax [1, 3]: < 50%
EC50 [2, 4]: ≥ 10 µM
Maximum % activity (with co-corrector) [2, 5]: + (<150)

COc1ccc(Br)c2c1C(C(=O)NS(=O)(=O)c1cccc3c(C(=O)O)cccc13)CC2 (stereo not shown) [III-181]
EC50 ([1]; CSE-HRP assay): ≥ 10 µM
Emax [1, 3]: < 50%
EC50 [2, 4]: 3 to 10 µM
Maximum % activity (with co-corrector) [2, 5]: ++ (≥150 and <350)

COc1cccc2c1C(C(=O)NS(=O)(=O)c1cccc3ccccc13)CC2 (stereo not shown) [III-182]
EC50 ([1]; CSE-HRP assay): < 3 µM
Emax [1, 3]: 50 to 150%
EC50 [2, 4]: < 3 µM
Maximum % activity (with co-corrector) [2, 5]: ++ (≥150 and <350)

COc1ccc(C(=O)O)c2c1C(C(=O)NS(=O)(=O)c1cccc3ccccc13)CC2 (stereo not shown) [III-183]
EC50 ([1]; CSE-HRP assay): ≥ 10 µM
Emax [1, 3]: < 50%
EC50 [2, 4]: 3 to 10 µM
Maximum % activity (with co-corrector) [2, 5]: ++ (≥150 and <350)

COC(=O)c1ccc(OC)c2c1CCC2C(=O)NS(=O)(=O)c1cccc2ccccc12 (stereo not shown) [III-184]
Emax [1, 3]: 50 to 150%
Maximum % activity (with co-corrector) [2, 5]: ++ (≥150 and <350)

COc1ccc(CO)c2c1C(C(=O)NS(=O)(=O)c1cccc3ccccc13)CC2 (stereo not shown) [III-185]
EC50 ([1]; CSE-HRP assay): 3 to 10 µM
Emax [1, 3]: < 50%
EC50 [2, 4]: 3 to 10 µM
Maximum % activity (with co-corrector) [2, 5]: ++ (≥150 and <350)

CNC(=O)c1ccc(OC)c2c1CCC2C(=O)NS(=O)(=O)c1cccc2ccccc12 (stereo not shown) [III-186]
EC50 ([1]; CSE-HRP assay): ≥ 10 µM
Emax [1, 3]: < 50%
EC50 [2, 4]: ≥ 10 µM
Maximum % activity (with co-corrector) [2, 5]: + (<150)

COc1ccc(C(=O)N(C)C)c2c1C(C(=O)NS(=O)(=O)c1cccc3ccccc13)CC2 (stereo not shown) [III-187]
EC50 ([1]; CSE-HRP assay): ≥ 10 µM
Emax [1, 3]: < 50%
EC50 [2, 4]: ≥ 10 µM
Maximum % activity (with co-corrector) [2, 5]: + (<150)

COc1ccc(CN2CCCC2)c2c1C(C(=O)NS(=O)(=O)c1cccc3ccccc13)CC2 (stereo not shown) [III-188]
EC50 ([1]; CSE-HRP assay): ≥ 10 µM
Emax [1, 3]: < 50%
EC50 [2, 4]: 3 to 10 µM
Maximum % activity (with co-corrector) [2, 5]: + (<150)

(1R)-4-cyclobutyl-7-methoxy-N-(1,2,3,4-tetrahydroquinoline-8-sulfonyl)-2,3-dihydro-1H-indene-1-carboxamide [Example I-131]
Maximum % activity (without co-corrector) ([1]; maximum at any tested concentration, normalized to positive control, without co-corrector): +++ (≥150)
EC50 [1]: < 3 µM
Maximum % activity (with co-corrector) ([2]; normalized to positive control, with 2 μM co-corrector): +++ (≥350)
EC50 ([2]; with 2 μM co-corrector): < 3 µM
